Measurements published in PubChem BioAssay (NCI).
“And” between values parts separate entries of the source, which are not always exact repeats. Equal entries are not always repeated.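 Test compounds were applied to cells in 96-well plates for 48 hours at 5 doses. GI50: concentration for 50% inhibition of growth. TGI: concentration producing complete growth inhibition.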

Experiments:
Experiment in all cases: NCI anticancer screen, dose series, 48 h
A549 NSCLC = test system: A549 NSCLC
SN12C renal = test system: SN12C renal
HL-60(TB) leukemia = test system: HL-60(TB) leukemia
MCF7 breast = test system: MCF7 breast
MDA-MB-231 breast = test system: MDA-MB-231 breast
SK-MEL-28 melanoma = test system: SK-MEL-28 melanoma
NCI-H226 lung = test system: NCI-H226 lung
DU-145 prostate = test system: DU-145 prostate
HT29 colon = test system: HT29 colon
OVCAR-5 ovarian = test system: OVCAR-5 ovarian

`N#CCc1c(F)c(F)c(F)c(F)c1F` gave a TGI (A549 NSCLC) of over 100 µM, a TGI (SN12C renal) of over 100 µM and a TGI (HL-60(TB) leukemia) of over 100 µM. It also gave a TGI (MCF7 breast) of over 100 µM, a TGI (MDA-MB-231 breast) of over 100 µM and a TGI (SK-MEL-28 melanoma) of over 100 µM. It also gave a TGI (NCI-H226 lung) of over 100 µM, a TGI (DU-145 prostate) of over 100 µM and a TGI (HT29 colon) of over 100 µM. For the same molecule, the TGI (OVCAR-5 ovarian) was over 100 µM.

`Nc1n[n+]([O-])c2cc([N+](=O)[O-])ccc2[n+]1[O-]` gave a TGI (A549 NSCLC) of 44.6 µM, a TGI (SN12C renal) of 18.1 µM and a TGI (HL-60(TB) leukemia) of 7.47 µM. For the same molecule, the TGI (MCF7 breast) was 11.7 µM, the TGI (MDA-MB-231 breast) was 44.7 µM and the TGI (SK-MEL-28 melanoma) was over 100 µM. The TGI (NCI-H226 lung) was 30.7 µM, the TGI (DU-145 prostate) was 31.7 µM and the TGI (HT29 colon) was 10.1 µM. For the same molecule, the TGI (OVCAR-5 ovarian) was 42.2 µM.

Work on `N#Cc1ncc(C(Cl)Cl)nc1Cl` yielded a TGI (A549 NSCLC) of over 10 µM, a TGI (SN12C renal) of 3.79 µM and a TGI (HL-60(TB) leukemia) of over 3.75 µM. The TGI (MCF7 breast) was 3.86 µM, the TGI (MDA-MB-231 breast) was 3.17 µM and the TGI (SK-MEL-28 melanoma) was 4.2 µM. The TGI (NCI-H226 lung) was over 10 µM, the TGI (DU-145 prostate) was over 10 µM and the TGI (HT29 colon) was 3.16 µM. It also gave a TGI (OVCAR-5 ovarian) of 4.39 µM.

For `Cc1ccc2c(c1)[n+](=O)c(C(=O)c1cccs1)c(C(F)(F)F)n2[O-]`, the GI50 (A549 NSCLC) was 1.72 µM and 0.764 µM, the TGI (A549 NSCLC) was 20.9 µM and 10.8 µM and the GI50 (SN12C renal) was 0.796 µM. For the same molecule, the TGI (SN12C renal) was 1.97 µM, the GI50 (HL-60(TB) leukemia) was 1.5 µM and 0.713 µM and the TGI (HL-60(TB) leukemia) was 33.7 µM and 57.3 µM. For the same molecule, the GI50 (MCF7 breast) was 0.875 µM and 0.456 µM, the TGI (MCF7 breast) was 3.79 µM and 21.5 µM and the GI50 (MDA-MB-231 breast) was 1.01 µM and 1.08 µM. The TGI (MDA-MB-231 breast) was 2.8 µM and 6.37 µM, the GI50 (SK-MEL-28 melanoma) was 5.31 µM and 2.91 µM and the TGI (SK-MEL-28 melanoma) was 50 µM and 22.6 µM. The GI50 (NCI-H226 lung) was 2.21 µM, the TGI (NCI-H226 lung) was 13.2 µM and the GI50 (DU-145 prostate) was 0.913 µM and 0.573 µM. The TGI (DU-145 prostate) was 2.08 µM and 2.42 µM, the GI50 (HT29 colon) was 2.76 µM and the TGI (HT29 colon) was 50 µM. For the same molecule, the GI50 (OVCAR-5 ovarian) was 1.58 µM and 1.57 µM and the TGI (OVCAR-5 ovarian) was 7.48 µM and 12.9 µM.

`O=c1cc(-c2ccc(Cl)cc2)[nH]c2ccccc12` was tested, and the GI50 (A549 NSCLC) was over 100 µM, the TGI (A549 NSCLC) was over 100 µM and the GI50 (SN12C renal) was over 100 µM. The TGI (SN12C renal) was over 100 µM, the GI50 (HL-60(TB) leukemia) was 5.62 µM and the TGI (HL-60(TB) leukemia) was over 100 µM. For the same molecule, the GI50 (MCF7 breast) was 41.3 µM, the TGI (MCF7 breast) was over 100 µM and the GI50 (MDA-MB-231 breast) was 57 µM. For the same molecule, the TGI (MDA-MB-231 breast) was over 100 µM, the GI50 (SK-MEL-28 melanoma) was over 100 µM and the TGI (SK-MEL-28 melanoma) was over 100 µM. For the same molecule, the GI50 (NCI-H226 lung) was over 100 µM, the TGI (NCI-H226 lung) was over 100 µM and the GI50 (DU-145 prostate) was 66.4 µM. For the same molecule, the TGI (DU-145 prostate) was over 100 µM, the GI50 (HT29 colon) was 40.7 µM and the TGI (HT29 colon) was over 100 µM. For the same molecule, the GI50 (OVCAR-5 ovarian) was over 100 µM and the TGI (OVCAR-5 ovarian) was over 100 µM.
